Patent US20060062758A1, “Tight junction modulator peptide PN159 for enhanced mucosal delivery of therapeutic compounds” (Nastech Pharmaceutical Comapny Inc., priority 2004, published 2006)
Non-standard residues stand in square brackets, D forms with d. No end group written: not given here.

Assays:
[1] = tested on: EpiAirway™ Cell Membrane (mucosal epithelial cell layer); test: Transepithelial electrical resistance (TER), EpiAirway in vitro epithelial tissue model; type: cell-based; details: for Relative TER Decrease: Table 8, amino acid substitutions; for Relative TER Decrease / TER(x)/TER(159) +/− SEM* / TER(x)/TER(159) +/− SEM: relative to PN159; for TER(x)/TER(159) +/− SEM*: mean values from multiple repeats; for TER(x)/TER(159) +/− SEM: Table 6, D-amino acid substitutions
Text: One “kit” consists of 24 units.
A. Respiratory airway epithelial cells form tight junctions in vivo as well as in vitro, and thereby restrict the flow of solutes across the tissue. These junctions confer a transepithelial resistance of several hundred ohms×cm^2 in excised airway tissues. In the MatTek EpiAirway™ units, the transepithelial electrical resistance (TER) is reported by the manufacturer to be routinely around 1000 ohms×cm^2. […] The porous membrane-bottomed units without cells, conversely, provide only minimal transmembrane resistance (approximately 5-20 ohms×cm^2).
B. Accurate determinations of TER require that the electrodes of the ohmmeter be positioned over a significant surface area above and below the membrane, and that the distance of the electrodes from the membrane be reproducibly controlled. The method for TER determination recommended by MatTek and employed for all experiments herein employs an “EVOM”™ epithelial voltohmmeter and an “ENDOHM”™ tissue resistance measurement chamber from World Precision Instruments, Inc., Sarasota, Fla.
D. Determinations of TER are made with 1.5 mL of PBS in the chamber and 350 μL of PBS in the membrane-bottomed unit being measured. The top electrode is adjusted to a position just above the membrane of a unit containing no cells (but containing 350 μL of PBS) and then fixed to ensure reproducible positioning. The resistance of a cell-free unit is typically 5-20 ohms×cm^2 (“background resistance”).
G. The unit is gently blotted free of excess PBS on its exterior surface only before being placed into the chamber (containing a fresh 1.5 mL aliquot of PBS). An aliquot of 350 μL PBS is added to the unit before the top electrode is placed on the chamber and the TER is read on the EVOM meter.
I. The units are read in the following sequence: all sham-treated controls, followed by all formulation-treated samples, followed by a second TER reading of each of the sham-treated controls. All TER values are reported as a function of the surface area of the tissue.
TER was calculated as: TER=(R1−Rb)×A Where R1 is resistance of the insert with a membrane, Rb is the resistance of the blank insert, and A is the area of the membrane (0.6 cm^2). The effect of pharmaceutical formulations comprising intranasal delivery-enhancing agents, for example, permeabilizing peptides as measured by TER across the EpiAirway™ Cell Membrane (mucosal epithelial cell layer). Permeabilizing peptides are applied to the EpiAirway™ Cell Membrane at a concentration of 1.0 mM. A decrease in TER value relative to the control value (control=approximately 1000 ohms-cm^2; normalized to 100.) indicates a decrease in cell membrane resistance and an increase in mucosal epithelial cell permeability.
The formulation pH was fixed at 4.5.

[2] = tested on: EpiAirway™ Cell Membrane (mucosal epithelial cell layer); test: Permeation kinetics across the in vitro epithelial tissue model; details: for Perm(x)/Perm(159) +/− SEM* / Perm(x)/Perm(159) +/− SEM: relative to PN159; for Perm(x)/Perm(159) +/− SEM*: mean values from multiple repeats; for permeability enhancement (in words): PN159 analogues compared with PN159; for Perm(x)/Perm(159) +/− SEM: Table 6, D-amino acid substitutions
Protocol: The EpiAirway™ system was developed by MatTek Corp (Ashland, Mass.) as a model of the pseudostratified epithelium lining the respiratory tract. The epithelial cells are grown on porous membrane-bottomed cell culture inserts at an air-liquid interface, which results in differentiation of the cells to a highly polarized morphology. The apical surface is ciliated with a microvillous ultrastructure and the epithelium produces mucus (the presence of mucin has been confirmed by immunoblotting). The inserts have a diameter of 0.875 cm, providing a surface area of 0.6 cm^2. The cells are plated onto the inserts at the factory approximately three weeks before shipping. One “kit” consists of 24 units.
A. A “kit” of 24 EpiAirway™ units can routinely be employed for evaluating five different formulations, each of which is applied to quadruplicate wells. Each well is employed for determination of permeation kinetics (4 time points), transepithelial electrical resistance (TER). An additional set of wells is employed as controls, which are sham treated during determination of permeation kinetics, but are otherwise handled identically to the test sample-containing units for determinations of transepithelial resistance and viability.
B. In all experiments, the mucosal delivery formulation to be studied is applied to the apical surface of each unit in a volume of 100 μL, which is sufficient to cover the entire apical surface. An appropriate volume of the test formulation at the concentration applied to the apical surface (no more than 100 μL is generally needed) is set aside for subsequent determination of concentration of the active material by ELISA or other designated assay.
D. In order to minimize potential sources of error and avoid any formation of concentration gradients, the units are transferred from one 0.9 mL-containing well to another at each time point in the study. These transfers are made at the following time points, based on a zero time at which the 100 μL volume of test material was applied to the apical surface: 15 minutes, 30 minutes, 60 minutes, and 120 minutes.
F. At the completion of each time point, the medium is removed from the well from which each unit was transferred, and aliquotted into two tubes (one tube receives 700 μL and the other 200 μL) for determination of the concentration of permeated test material and, in the event that the test material is cytotoxic, for release of the cytosolic enzyme, lactate dehydrogenase, from the epithelium. These samples are kept in the refrigerator if the assays are to be conducted within 24 hours, or the samples are subaliquotted and kept frozen at −80° C. until thawed once for assays. Repeated freeze-thaw cycles are to be avoided.
EIA kit (p/n S-1178(EIAH6101) was purchased from Peninsula Laboratories Inc. (Division of BACHEM, San Carlos, Calif., 800-922-1516). 17×120 mm polypropylene conical tubes (p/n 352097, Falcon, Franklin Lakes, N.J.) were used for all sample preparations. Eight standards were used for PTH quantitation. The rest of the assay procedure was the same as the kit inserts.
The instant study was designed to evaluate the effect of PN159 itself or in combination with additional permeation enhancers on PTH permeation. The PN159 concentrations evaluated are 25, 50, and 100 μM. The additional permeation enhancers are 45 mg/ml M-β-CD, 1 mg/ml DDPC, and 1 mg/ml EDTA. Sorbitol was used as a tonicifier (146-190 mM) to adjust the osmolarity of formulations to 220 mOsm/kg. The formulation pH was fixed at 4.5. PTH was chosen as a model peptide in this example. 2 mg/ml PTH was combined with PN159 with or without additional permeation enhancers. The combination was tested using an in vitro epithelial tissue model to monitor PTH permeation, transepithelial electrical resistance (TER), and the cytotoxicity of the formulation by LDH assay.
The effect of PN159 on permeation of MC-4RA was evaluated in this study.

H-KLALKLALKLNLKAALKLA-NH2 [PN448]
Relative TER Decrease [1]: 0.4

NH2-KALAALLKKAAKLLAALK-amide (H-KALAALLKKAAKLLAALK-NH2) [PN442]
TER(x)/TER(159) +/− SEM* ([1]; Table 9, hydrophobic faces): 0.93 +/− 0.03 | Perm(x)/Perm(159) +/− SEM* ([2]; Table 9, hydrophobic faces): 0.81 +/− 0.03

NH2-KALAALLKKLAKLLAALK-amide (H-KALAALLKKLAKLLAALK-NH2) [PN444]
TER(x)/TER(159) +/− SEM* ([1]; Table 9, hydrophobic faces): 0.82 +/− 0.05 | Perm(x)/Perm(159) +/− SEM* ([2]; Table 9, hydrophobic faces): 0.41 +/− 0.08

NH2-KALKLKAALALLAKLKLA-amide (H-KALKLKAALALLAKLKLA-NH2) [PN424]
TER(x)/TER(159) +/− SEM* ([1]; Table 9, hydrophobic faces): 0.59 +/− 0.07 | Perm(x)/Perm(159) +/− SEM* ([2]; Table 9, hydrophobic faces): 0.20 +/− 0.04

NH2-KLAAALLKKAKKLAAALL-amide (H-KLAAALLKKAKKLAAALL-NH2) [PN441]
TER(x)/TER(159) +/− SEM* ([1]; Table 9, hydrophobic faces): 0.54 +/− 0.04 | Perm(x)/Perm(159) +/− SEM* ([2]; Table 9, hydrophobic faces): 0.35 +/− 0.04

NH2-KLALKLALKALKAA-amide (H-KLALKLALKALKAA-NH2) [PN417]
Perm(x)/Perm(159) +/− SEM* ([2]; Example 7, length changes): 0.04

NH2-KLALKLALKALKAALK-amide (H-KLALKLALKALKAALK-NH2) [PN418]
TER(x)/TER(159) +/− SEM* ([1]; Example 7, length changes): 1.05 +/− 0.05 | Perm(x)/Perm(159) +/− SEM* ([2]; Example 7, length changes): 0.64

NH2-KLALKLALKALKAALKLALK-amide (H-KLALKLALKALKAALKLALK-NH2) [PN419]
TER(x)/TER(159) +/− SEM* ([1]; Example 7, length changes): 1.23 +/− 0.01 | Perm(x)/Perm(159) +/− SEM* ([2]; Example 7, length changes): 0.74

NH2-KLALKLALKALKAALKLALKLA-amide (H-KLALKLALKALKAALKLALKLA-NH2) [PN420]
TER(x)/TER(159) +/− SEM* ([1]; Example 7, length changes): 0.77 +/− 0.05 | Perm(x)/Perm(159) +/− SEM* ([2]; Example 7, length changes): 0.24

NH2-KLALKLALKALKAALKLALKLALK-amide (H-KLALKLALKALKAALKLALKLALK-NH2) [PN421]
TER(x)/TER(159) +/− SEM* ([1]; Example 7, length changes): 0.74 +/− 0.11 | Perm(x)/Perm(159) +/− SEM* ([2]; Example 7, length changes): 0.17

NH2-KLALKLALKALKAALKLALKLALKAL-amide (H-KLALKLALKALKAALKLALKLALKAL-NH2) [PN422]
TER(x)/TER(159) +/− SEM* ([1]; Example 7, length changes): 0.47 +/− 0.07 | Perm(x)/Perm(159) +/− SEM* ([2]; Example 7, length changes): 0.07

NH2-KLAWKLALKALKAALKLA-amide (H-KLAWKLALKALKAALKLA-NH2) [PN0425, Single Tryptophan]
Relative TER Decrease [1]: 1.0

NH2-KLAWKLALKALKAAWKLA-amide (H-KLAWKLALKALKAAWKLA-NH2) [PN0427, Two Tryptophan]
Relative TER Decrease [1]: 1.0

NH2-KLAWKLAWKALKAAWKLA-amide (KLAWKLAWKALKAAWKLA-NH2) [PN028, Three Tryptophan]
Relative TER Decrease [1]: 0.7

NH2-KLaLKlALkAlkAALkLA-amide (H-KL[dA]LK[dL]AL[dK]A[dL][dK]AAL[dK]LA-NH2) [PN434]
TER reduction (in words) ([1]; PN159 analogues compared with PN159): null activities | TER(x)/TER(159) +/− SEM [1]: 0.12 +/− 0.01 | permeability enhancement (in words) [2]: null activities | Perm(x)/Perm(159) +/− SEM [2]: 0.02 +/− 0.00

NH2-LKLLKKLLKKLLKLL-amide (H-LKLLKKLLKKLLKLL-NH2) [PN406, Leucine and Lysine rich]
Relative TER Decrease [1]: 0.9

NH2-LKTLATALTKLAKTLTTL-amide (H-LKTLATALTKLAKTLTTL-NH2) [PN443, Threonine]
Relative TER Decrease [1]: 0.3

NH2-LKlLKkLlkKLLkLL-amide (H-LK[dL]LK[dK]L[dL][dK]KLL[dK]LL-NH2) [PN407]
TER(x)/TER(159) +/− SEM [1]: 1.08 +/− 0.01 | Relative TER Decrease [1]: 1.1 | permeability enhancement (in words) [2]: minor but statistically significant improvement on permeability | Perm(x)/Perm(159) +/− SEM [2]: 1.20 +/− 0.05

NH2-RLALRLALRALRAALRLA-amide (H-RLALRLALRALRAALRLA-NH2) [PN394, Argenine]
Relative TER Decrease [1]: 0.7

NH2-RLAWRLALRALRAALRLA-amide (H-RLAWRLALRALRAALRLA-NH2) [PN395, Argenine and Single Tryptophan]
Relative TER Decrease [1]: 0.8

NH2-alklaaklaklalklalk-amide (ALKLAAKLAKLALKLALK; all D-amino acids; C-terminal amide) [PN408]
TER(x)/TER(159) +/− SEM [1]: 1.05 +/− 0.01 | Perm(x)/Perm(159) +/− SEM [2]: 1.16 +/− 0.07

NH2-klalklalkalkaalkla-amide (H-[dK][dL][dA][dL][dK][dL][dA][dL][dK][dA][dL][dK][dA][dA][dL][dK][dL][dA]-NH2; SMILES CC(C)C[C@@H](NC(=O)[C@H](N)CCCCN)C(=O)N[C@H](C)C(=O)N[C@H](CC(C)C)C(=O)N[C@H](CCCCN)C(=O)N[C@H](CC(C)C)C(=O)N[C@H](C)C(=O)N[C@H](CC(C)C)C(=O)N[C@H](CCCCN)C(=O)N[C@H](C)C(=O)N[C@H](CC(C)C)C(=O)N[C@H](CCCCN)C(=O)N[C@H](C)C(=O)N[C@H](C)C(=O)N[C@H](CC(C)C)C(=O)N[C@H](CCCCN)C(=O)N[C@H](CC(C)C)C(=O)N[C@H](C)C(N)=O) [PN393]
TER(x)/TER(159) +/− SEM [1]: 1.06 +/− 0.00 | Perm(x)/Perm(159) +/− SEM [2]: 1.02 +/− 0.16
